Experimental data as given in patent US20160244718A1, “REPROGRAMMING OF PLURIPOTENT STEM CELLS FOR IMPROVED CONTROL OF THEIR DIFFERENTIATION PATHWAYS” (ETH ZURICH, priority 2013, published 2016).

System: pPSCs (cESCs d7) and PSCs (WT ESCs)
Assay: Cardiogenic differentiation induced by icariin, Real-Time PCR of cardiogenic markers
Format: cell-based, mouse
Settings: 12 days stimulation with icariin (d7 to d7+12), RNA isolated every 4 days, normalized to Gapdh; pPSCs compared with PSCs
Method: Total RNA was isolated from ˜1×10^6 cells per sample using the RNeasy Plus Mini Kit (Qiagen, Hombrechtikon, Switzerland) with RNase-free DNase treatment (Qiagen) following the manufacturer's protocol. For reverse transcription (RT) 2 μg total RNA was reverse transcribed into cDNA in a reaction volume of 20 μl using the iScript™ Advanced cDNA Synthesis Kit (Bio-Rad). Each RT reaction mix contained 4 μl 5× iScript advanced reaction mix and 1 μl iScript advanced reverse transcriptase. The 20 μl reactions were incubated at 42° C. for 30 min, at 85° C. for 5 min, and then held at 4° C. Real-Time PCR reactions were performed on the resulting cDNA using the CFX Connect™ Real-Time PCR Detection System (Bio-Rad), SsoAdvanced™ SYBR® Green Supermix (Bio-Rad) and Hard-Shell® Low-Profile Thin-Wall 96-Well Skirted PCR Plates (Bio-Rad). Briefly, following the RT step, 5 μl of the 100fold-diluted RT reaction was combined with 15 μl mastermix (2× SsoAdvanced™ SYBR® Green Supermix, forward primer, reverse primer and nuclease-free water) in a 20 μl final volume. PCR reactions were incubated at 95° C. for 3 min, followed by 39 cycles of 95° C. for 10 s and 62° C. for 30 s; and were run as duplicates of two independent experiments. […] Results were analyzed using CFX Manager™ software (Bio-Rad) and mRNA expression levels relative to Gapdh were calculated based on the AACt method. […]

In the case of `COc1ccc(-c2oc3c(CC=C(C)C)c(O[C@@H]4O[C@H](CO)[C@@H](O)[C@H](O)[C@H]4O)cc(O)c3c(=O)c2O[C@@H]2O[C@@H](C)[C@H](O)[C@@H](O)[C@H]2O)cc1` [icariin], the “mRNA expression of all tested cardiogenic markers” value is reported as “induced higher in pPSCs than in PSCs”.
